Data reported in PubChem BioAssay AID248 (DTP/NCI, 2004).
Inconclusive results and toxic doses are left out. Peptide text beside a SMILES is read from it. * marks the point of attachment. Cbz = O=C(OCc1ccccc1)*; OBn = c1ccc(CO*)cc1; Bn = c1ccc(C*)cc1

Test system: L1210 leukemia ip in BDF1 mice, survival T/C
Assay: NCI In Vivo Anticancer Drug Screen. Data for tumor model L1210 Leukemia (intraperitoneal) in B6D2F1 (BDF1) mice
Conditions: endpoint: mean survival time, higher = longer survival
Procedure, shortened: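 Transplantable tumor model; survival measured in treated vs vehicle control mice. Value = treated/control.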

[1] = dose: 100.0 mg/kg/injection, schedule: Q04DX003 (ip), vehicle: saline with Tween-80
[2] = dose: 100.0 mg/kg/injection, schedule: Q01DX009 (ip), vehicle: saline
[3] = dose: 200.0 mg/kg/injection, schedule: Q01DX009 (ip), vehicle: saline
[4] = dose: 100.0 mg/kg/injection, schedule: Q04DX003 (ip), vehicle: saline
[5] = dose: 200.0 mg/kg/injection, schedule: Q04DX003 (ip), vehicle: saline
[6] = dose: 400.0 mg/kg/injection, schedule: Q01DX009 (ip), vehicle: saline
[7] = dose: 400.0 mg/kg/injection, schedule: Q04DX003 (ip), vehicle: saline
[8] = dose: 25.0 mg/kg/injection, schedule: Q04DX003 (ip), vehicle: saline with Tween-80
[9] = dose: 50.0 mg/kg/injection, schedule: Q04DX003 (ip), vehicle: saline with Tween-80
[10] = dose: 100.0 mg/kg/injection, schedule: Q01DX001 (ip), vehicle: saline
[11] = dose: 200.0 mg/kg/injection, schedule: Q01DX001 (ip), vehicle: saline
[12] = dose: 50.0 mg/kg/injection, schedule: Q01DX001 (ip), vehicle: carboxymethylcellulose (CMC)
[13] = dose: 100.0 mg/kg/injection, schedule: Q01DX001 (ip), vehicle: carboxymethylcellulose (CMC)
[14] = dose: 25.0 mg/kg/injection, schedule: Q04DX003 (ip), vehicle: saline
[15] = dose: 50.0 mg/kg/injection, schedule: Q04DX003 (ip), vehicle: saline
[16] = dose: 100.0 mg/kg/injection, schedule: Q01DX009 (ip), vehicle: Klucel (hydroxypropylcellulose) (HPC)
[17] = dose: 200.0 mg/kg/injection, schedule: Q01DX009 (ip), vehicle: Klucel (hydroxypropylcellulose) (HPC)
[18] = dose: 400.0 mg/kg/injection, schedule: Q01DX009 (ip), vehicle: Klucel (hydroxypropylcellulose) (HPC)
[19] = dose: 100.0 mg/kg/injection, schedule: Q04DX002 (ip), vehicle: Klucel (hydroxypropylcellulose) (HPC)
[20] = dose: 100.0 mg/kg/injection, schedule: Q04DX003 (ip), vehicle: Klucel (hydroxypropylcellulose) (HPC)
[21] = dose: 200.0 mg/kg/injection, schedule: Q04DX003 (ip), vehicle: Klucel (hydroxypropylcellulose) (HPC)
[22] = dose: 200.0 mg/kg/injection, schedule: Q04DX002 (ip), vehicle: Klucel (hydroxypropylcellulose) (HPC)
[23] = dose: 25.0 mg/kg/injection, schedule: Q01DX001 (ip), vehicle: saline with Tween-80
[24] = dose: 50.0 mg/kg/injection, schedule: Q01DX001 (ip), vehicle: saline with Tween-80
[25] = dose: 100.0 mg/kg/injection, schedule: Q01DX001 (ip), vehicle: saline with Tween-80
[26] = dose: 400.0 mg/kg/injection, schedule: Q01DX001 (ip), vehicle: saline

## Cc1ccc(S(=O)(=O)N(C)Cc2ccccc2)cc1
[1]
  T/C: 95 % of control
dose: 200.0 mg/kg/injection, schedule: Q04DX003 (ip), vehicle: saline with Tween-80
  T/C: 101 % of control
dose: 400.0 mg/kg/injection, schedule: Q04DX003 (ip), vehicle: saline with Tween-80
  T/C: 101 % of control

## CCCCOB(OCCCC)c1cccc(C(F)(F)F)c1
[2]
  T/C: 100 % of control
[3]
  T/C: 89 % of control

## Nc1cccnn1
[2]
  T/C: 99 % of control
[4]
  T/C: 109 % of control
[3]
  T/C: 99 % of control
[5]
  T/C: 117 % of control
[6]
  T/C: 103 % of control
[7]
  T/C: 120 % of control

## CC(C)CC(C=O)(CCN(C)C)c1cccc2ccccc12 (stereo unspecified)
dose: 12.5 mg/kg/injection, schedule: Q04DX003 (ip), vehicle: saline with Tween-80
  T/C: 107 % of control
[8]
  T/C: 103 % of control
[9]
  T/C: 92 % of control

## Cc1cc(NS(=O)(=O)c2ccc(N=Nc3c(N)[nH]c(=S)[nH]c3=O)cc2)nc(C)n1
[10]
  T/C: 96 % of control
[11]
  T/C: 100 % of control

## O=S(=O)(c1ccc(I)cc1)c1ccc(I)cc1
[12]
  T/C: 104 % of control
[13]
  T/C: 95 % of control
dose: 200.0 mg/kg/injection, schedule: Q01DX001 (ip), vehicle: carboxymethylcellulose (CMC)
  T/C: 88 % of control
dose: 400.0 mg/kg/injection, schedule: Q01DX001 (ip), vehicle: carboxymethylcellulose (CMC)
  T/C: 95 % of control

## CCCCCCCCCCCCSC(SCCCCCCCCCCCC)c1ccc(OCC(=O)O)cc1
[14]
  T/C: 105 % of control
[15]
  T/C: 96 % of control
[16]
  T/C: 97 % of control
[4]
  T/C: 100 % of control
[17]
  T/C: 94 % of control
[5]
  T/C: 102 % of control
[18]
  T/C: 97 % of control
[7]
  T/C: 96 % of control

## CC1CCc2cc3c4ccccc4n(C)c3cc2C1 (stereo unspecified)
dose: 75.0 mg/kg/injection, schedule: Q01DX001 (ip), vehicle: carboxymethylcellulose (CMC)
  T/C: 107 % of control
dose: 150.0 mg/kg/injection, schedule: Q01DX001 (ip), vehicle: carboxymethylcellulose (CMC)
  T/C: 109 % of control
dose: 300.0 mg/kg/injection, schedule: Q01DX001 (ip), vehicle: carboxymethylcellulose (CMC)
  T/C: 109 % of control

## O=C(O)c1cccc([N+](=O)[O-])c1
dose: 50.0 mg/kg/injection, schedule: Q04DX002 (ip), vehicle: Klucel (hydroxypropylcellulose) (HPC)
  T/C: 88 % of control
[19]
  T/C: 94 % of control

## COc1ccc(-c2c(O)c3cccc(-c4ccccc4)c3oc2=O)cc1
[8]
  T/C: 116 % of control
[9]
  T/C: 96 % of control
[1]
  T/C: 101 % of control
[4]
  T/C: 95 % of control
[5]
  T/C: 93 % of control

## O=Cc1cc(Cl)cc(Cl)c1OC(=O)c1ccccc1
[16]
  T/C: 97 % of control
[17]
  T/C: 92 % of control

## O=C(O)/C(=C\C#Cc1ccccc1)c1ccccc1
[20]
  T/C: 94 % of control
[21]
  T/C: 100 % of control

## CC(C)=CCN(CC=C(C)C)CCC(C)(C(N)=O)c1cccc2ccccc12 (stereo unspecified)
dose: 6.25 mg/kg/injection, schedule: Q01DX009 (ip), vehicle: Klucel (hydroxypropylcellulose) (HPC)
  T/C: 101 % of control
dose: 6.25 mg/kg/injection, schedule: Q04DX003 (ip), vehicle: Klucel (hydroxypropylcellulose) (HPC)
  T/C: 104 % of control
dose: 12.5 mg/kg/injection, schedule: Q01DX009 (ip), vehicle: Klucel (hydroxypropylcellulose) (HPC)
  T/C: 98 % of control
dose: 12.5 mg/kg/injection, schedule: Q04DX003 (ip), vehicle: Klucel (hydroxypropylcellulose) (HPC)
  T/C: 100 % of control
dose: 25.0 mg/kg/injection, schedule: Q01DX009 (ip), vehicle: Klucel (hydroxypropylcellulose) (HPC)
  T/C: 101 % of control
dose: 25.0 mg/kg/injection, schedule: Q04DX003 (ip), vehicle: Klucel (hydroxypropylcellulose) (HPC)
  T/C: 105 % of control

## CCOC(=O)NNC(=O)O
[12]
  T/C: 108 % of control
[13]
  T/C: 90 % of control

## O=C(CCl)c1ccc(Oc2ccccc2)cc1
dose: 20.0 mg/kg/injection, schedule: Q01DX009 (ip), vehicle: Klucel (hydroxypropylcellulose) (HPC)
  T/C: 103 % of control
dose: 20.0 mg/kg/injection, schedule: Q04DX003 (ip), vehicle: Klucel (hydroxypropylcellulose) (HPC)
  T/C: 107 % of control
dose: 40.0 mg/kg/injection, schedule: Q01DX009 (ip), vehicle: Klucel (hydroxypropylcellulose) (HPC)
  T/C: 100 % of control
dose: 40.0 mg/kg/injection, schedule: Q04DX003 (ip), vehicle: Klucel (hydroxypropylcellulose) (HPC)
  T/C: 104 % of control
dose: 80.0 mg/kg/injection, schedule: Q04DX003 (ip), vehicle: Klucel (hydroxypropylcellulose) (HPC)
  T/C: 105 % of control
[20]
  T/C: 89 % of control

## O=C(Nc1ccccc1)OCCc1ccc([N+](=O)[O-])cc1
[20]
  T/C: 100 % of control
[21]
  T/C: 98 % of control
dose: 400.0 mg/kg/injection, schedule: Q04DX003 (ip), vehicle: Klucel (hydroxypropylcellulose) (HPC)
  T/C: 102 % of control

## O=C(O)COc1cc(F)c([N+](=O)[O-])cc1[N+](=O)[O-]
[19]
  T/C: 90 % of control
[22]
  T/C: 97 % of control

## CC(C)CC(NC(=O)C(CSCc1ccccc1)NC(=O)OCc1ccccc1)C(=O)OCc1ccccc1 (stereo unspecified) (Cbz-Cys(Bn)-Leu-OBn; configuration not given here)
dose: 100.0 mg/kg/injection, schedule: Q04DX003 (ip), vehicle: gum acacia
  T/C: 93 % of control
dose: 200.0 mg/kg/injection, schedule: Q04DX003 (ip), vehicle: gum acacia
  T/C: 93 % of control
dose: 400.0 mg/kg/injection, schedule: Q04DX003 (ip), vehicle: gum acacia
  T/C: 91 % of control

## OC1CCNc2ccccc21 (stereo unspecified)
[2]
  T/C: 104 % of control
[3]
  T/C: 105 % of control
[6]
  T/C: 112 % of control

## O=C(Nc1ccc(Cl)c(Cl)c1)Oc1cccc(NC(=S)Nc2ccccc2)c1
[16]
  T/C: 94 % of control
[17]
  T/C: 94 % of control
[18]
  T/C: 94 % of control

## Cc1nc(N)[nH]c(=O)c1CCCNC(=O)c1ccc(CBr)cc1
[23]
  T/C: 95 % of control
[24]
  T/C: 88 % of control
[25]
  T/C: 97 % of control

## CCOC(=O)Cc1c(C)c2cc(C(=O)c3ccccc3)c(O)cc2oc1=O
[10]
  T/C: 98 % of control
[11]
  T/C: 96 % of control
[26]
  T/C: 93 % of control

## N=c1ccc2nc3ccc(N)cc3sc-2c1
dose: 6.25 mg/kg/injection, schedule: Q01DX009 (ip), vehicle: saline
  T/C: 104 % of control
dose: 6.25 mg/kg/injection, schedule: Q04DX003 (ip), vehicle: saline
  T/C: 100 % of control
dose: 12.5 mg/kg/injection, schedule: Q01DX009 (ip), vehicle: saline
  T/C: 106 % of control
dose: 12.5 mg/kg/injection, schedule: Q04DX003 (ip), vehicle: saline
  T/C: 96 % of control
dose: 25.0 mg/kg/injection, schedule: Q01DX009 (ip), vehicle: saline
  T/C: 112 % of control
[14]
  T/C: 107 % of control
dose: 50.0 mg/kg/injection, schedule: Q01DX009 (ip), vehicle: saline
  T/C: 98 % of control
[15]
  T/C: 105 % of control
[4]
  T/C: 105 % of control

## CC(C)C(C(=O)O)c1ccccc1 (stereo unspecified)
[4]
  T/C: 100 % of control
[5]
  T/C: 112 % of control
[7]
  T/C: 107 % of control

## Cc1cccc(NC(=O)Nc2cccc(Cl)c2Cl)n1
[16]
  T/C: 92 % of control
[19]
  T/C: 89 % of control
[17]
  T/C: 92 % of control
[22]
  T/C: 92 % of control
dose: 400.0 mg/kg/injection, schedule: Q04DX002 (ip), vehicle: Klucel (hydroxypropylcellulose) (HPC)
  T/C: 103 % of control

## O=C(NCCBr)Nc1ccc([N+](=O)[O-])cc1
dose: 50.0 mg/kg/injection, schedule: Q01DX009 (ip), vehicle: saline with Tween-80
  T/C: 90 % of control
dose: 100.0 mg/kg/injection, schedule: Q01DX009 (ip), vehicle: saline with Tween-80
  T/C: 87 % of control

## CN1CCN(c2ccccc2)CC1
[23]
  T/C: 168 % of control
[24]
  T/C: 98 % of control
[25]
  T/C: 196 % of control

## S=P(c1ccccc1)(c1cccc2ccccc12)c1cccc2ccccc12
[10]
  T/C: 93 % of control
[11]
  T/C: 96 % of control
[26]
  T/C: 93 % of control
